# Where two headings read alike, the source gives them in different places.
# How the values were obtained:
# [1] = test system: Streptococcus mutans strain ATCC 25175; experiment: S. mutans growth in TS media with cesium/sodium salts (OD 600 nm, doubling time); format: cell-based; details: for inhibition of culture growth rates: nitrate salt, tested at 25-100 mM; for colonies on TS-agar plate: 50 μL of 100 mM salt culture spread onto TS-agar plate; for Minimum Inhibitory Concentration (MIC): Lineweaver-Burke plot of growth data
# Description: (§1) Streptococcus mutans strain ATCC 25175 was obtained from American Type Culture Collection in the freeze-dried state. Cells were rehydrated in a trypticase soy-yeast extract media (30 g trypticase soy broth and 3 g yeast extract per liter mqH2O; TS media). The bacteria were grown overnight at 37° C., shaking at 60 rpm in 50 mL broth. For routine propagation of the strain, S. mutans was grown on trypticase soy agar plates, TS media with 15 g/L agar. Escherichia coli strain K12 was grown as a representative enteric bacteria in LB broth (10 g tryptone, 5 g yeast extract and 10 g NaCl per liter mqH2O).
# To assess the toxicity of cesium chloride, growth rates were calculated from cultures grown in the absence and presence of cesium chloride with sodium chloride added to controls to maintain consistent ionic strength. The first growth curves conducted used duplicate cultures of 50 mL TS media in 125 mL flasks with foam stoppers. The media was inoculated with 1 mL of the starter culture (2% inoculum) and the optical density was measured at 600 nm. Two conditions were initially tested: 100 mM CsCl and 100 mM NaCl.
# (§2) An increasing gradient of CsCl concentrations was examined to see how bacterial growth rate varies with salt concentration. Concentrations of 0 mM, 5 mM, 10 mM, 25 mM, 50 mM, 75 mM and 100 mM CsCl were tested; NaCl was used to counter balance control in order to maintain constant ion concentrations.
# Additional cesium salts were used to assess alternate inhibitors of S. mutans cultures. Cesium salts of hydroxide, formate, bicarbonate, sulfate, nitrate, fluoride, and iodide were obtained from Fisher Scientific. Growth rates of S. mutans were monitored with 0 mM, 25 mM, 50 mM, and 100 mM cesium salt in TS broth. Control cultures were grown with sodium hydroxide, bicarbonate, nitrate, and sulfate at 0 mM, 25 mM, 50 mM, and 100 mM.
# To investigate the inhibition of S. mutans by cesium chloride, growth in the presence and absence of CsCl was compared. Ions were balanced with NaCl in all cultures to a final concentration of 100 mM of supplemental cations added to the media (i.e., for 75 mM CsCl, 25 mM NaCl was added to bring the total concentration of supplemental cation to 100 mM). All data is presented in optical density absorbance measurements at 600 nm, or doubling times (the length of time it takes for a culture to double in time).
# [2] = test system: Escherichia coli strain K12; experiment: E. coli K12 growth in LB broth with CsCl; format: cell-based
# Description: as §1
# as §2, with “concentrations. Additional gradient growth curves with 0 mM, 20 mM, 30 mM, 40 mM and 50 mM CsCl were conducted to refine the inhibition profile of S. mutans.” for “concentrations.”
# [3] = test system: E. coli potassium channel mutants (Kch JW1242, TrkG JW1358, TrkH JW5576, KdpA JW0686); experiment: Growth of E. coli potassium channel mutants with CsCl; format: cell-based, Escherichia coli
# Description: In order to better understand the mechanism of inhibition, the following potassium channel mutants of E. coli from the Keio collection were obtained from the Coli Genetic Stock Center at Yale University: Kch mutant JW 1242-1, TrkG mutant JW 1358-1, TrkH mutant JW 5576-1, and KdpA mutant JW686-5. Mutant E. coli strains were grown in LB broth in the presence or absence of CsCl (either 0 mM, 50 mM, or 100 mM CsCl) to assess the role of potassium transport channels in cesium inhibition.
# It was hypothesized that, as a larger monovalent cation, cesium could block potassium channels, thereby blocking the uptake of potassium into the cell and retarding cell growth. Strains of E. coli with non-essential genes knocked out were acquired from the Yale Coli Genetic Stock Center. Four mutants were chosen: JW0686, a KdpA mutant, a cesium inducible potassium transporting ATPase; JW1242, a Kch mutant, a conductive potassium transporter; JW1358, a TrkG mutant, a transmembrane component of the Trk potassium uptake system; JW5576, a TrkH mutant, a transmembrane component of the Trk potassium uptake system. TrkG and TrkH determine the specificity of the Trk protein. Because of their similarity (i.e., 41% nucleotide homology), Trk can be made with either one of the two subunits if the other is not available, although TrkG is preferred.
# S. mutans [4] = experiment: S. mutans growth with CsCl under differing pH conditions; format: cell-based, Streptococcus mutans
# S. mutans [5] = experiment: Spiking of exponentially growing S. mutans cultures; format: cell-based, Streptococcus mutans; details: for doubling time: culture spiked with 100 mM salt in early exponential phase
# Description: To determine how CsCl affects exponentially growing S. mutans cells, cultures were spiked with CsCl. TS media was prepared as in previous experiments and cultures were started with 0.2% inoculum. The cultures were grown for three and a half hours while monitoring the growth with the OD at 600 nm. When the cultures were in early exponential growth phase, they were spiked with 100 mM CsCl, 100 mM NaCl, or Listerine mouthwash in a 1:10 or 1:100 dilution in TS media.
# S. mutans [6] = details: previous study, cited from earlier work
# [7] = 0, 25, 50 and 100 mM cesium salt
compound,measurement,setting,value
[Cs+].[F-] [Cesium fluoride],inhibition of S. mutans growth,[1]; [7],little to no inhibition
O=C[O-].[Cs+] [Cesium formate],inhibition of S. mutans growth,[1]; [7],little to no inhibition
[Cs+].[OH-] [Cesium hydroxide],inhibition of S. mutans growth,"[1]; 50 mM or greater, due to increase in pH",inhibited cultures completely
same,pH of the media,50 mM,9.5
same,pH of the media,100 mM,12.5
[Cs+].[I-] [Cesium iodide],inhibition of S. mutans growth,[1]; [7],little to no inhibition
O=[N+]([O-])[O-].[Cs+] [Cesium nitrate],inhibition of culture growth rates,[1],roughly 30%
O=S(=O)([O-])[O-].[Cs+].[Cs+] [Cesium sulfate],inhibition of S. mutans growth,[1]; concentrations of 50 mM or below,not inhibitory
"[Cl-].[Cs+] [CsCl, cesium chloride]",maximum yield,"[1]; 0, 5, 10 and 25 mM CsCl cultures, OD 600 nm",0.9 OD units
same,doubling time,"[1]; 5 mM CsCl, NaCl added to 100 mM total supplemental cation",1.06 h
same,doubling time,"[1]; 10 mM CsCl, NaCl added to 100 mM total supplemental cation",0.94 h
same,doubling time,"[1]; 25 mM CsCl, NaCl added to 100 mM total supplemental cation",1.17 h
same,doubling time,"[1]; 50 mM CsCl, NaCl added to 100 mM total supplemental cation",1.54 h
same,doubling time,"[1]; 75 mM CsCl, NaCl added to 100 mM total supplemental cation",2.37 h
same,doubling time,[1]; 100 mM CsCl,4.17 h
same,growth of S. mutans,[1]; 100 mM CsCl culture,almost completely inhibited
same,colonies on TS-agar plate,[1],thin translucent colonies after a week
same,Minimum Inhibitory Concentration (MIC),[1],61.2 mM
same,doubling time,[2]; all CsCl concentrations tested (0-100 mM),approximately 1 h
same,effect on growth rate,"[2]; concentrations as high as 100 mM CsCl, LB media",minimal effect
same,inhibition of mutants,"[3]; 0, 50 or 100 mM CsCl in LB broth",some inhibition
same,reduction in growth rate,"[3]; 100 mM CsCl vs control with 100 mM NaCl, most inhibited cultures",roughly one third
same,doubling time,"S. mutans [4]; 25 mM CsCl, pH 7.00",52 min
same,inhibition,"S. mutans [4]; 25 mM CsCl, pH 7.25",No inhibition
same,doubling time,"S. mutans [4]; 25 mM CsCl, pH 8.33",64 min
same,increase of doubling time,"S. mutans [4]; 25 mM CsCl, pH 8.33 vs pH 7.00",25%
same,inhibition relative to neutral pH,"S. mutans [4]; 100 mM, pH 8.33",more inhibitory
same,inhibition relative to neutral or basic pH,S. mutans [4]; pH 4.50,less inhibitory
same,inhibition relative to other pH tested,S. mutans [4]; pH 8.33,strongest inhibition
same,doubling time,S. mutans [5],2.49 h
"[Cl-].[Na+] [NaCl, sodium chloride]",doubling time,[1]; 100 mM NaCl (presented as 0 mM CsCl),roughly 1 hour
same,colonies on TS-agar plate,[1],small opaque white colonies overnight
same,yield,S. mutans [5]; 100 mM spiked control,0.9 OD units
same,doubling time,S. mutans [5],1.21 h
"[Na+].[OH-] [NaOH, sodium hydroxide]",pH of the media,50 mM,9.5
same,pH of the media,100 mM,12.5
O=C([O-])O.[Na+] [sodium bicarbonate],completely inhibitory concentration,S. mutans [6]; 8% w/v converted,~950 mM
same,completely inhibitory concentration,S. mutans [6],8 % w/v
O=[N+]([O-])[O-].[Na+] [sodium nitrate],inhibition of culture growth rates,[1],roughly 30%
cesium bicarbonate,inhibition of S. mutans growth,[1]; 50 mM,increased inhibition
same,inhibition of S. mutans growth,[1]; 100 mM,complete inhibition
same,Minimum Inhibitory Concentration (MIC),[1],40.5 mM
same,inhibition compared with sodium bicarbonate control,[1]; concentrations less than 45 mM,not significantly different
same,inhibition compared with sodium bicarbonate control,[1]; concentrations of 45 mM or greater,inhibited S. mutans growth more than the control cultures
same,MIC lower than the MIC for CsCl by,[1]; difference of MIC values,more than 20 mM
